Our source for the IC50 values is patent publication US11696917B2, “Agent enhancing antitumor effect using pyrazolo[3,4-d]pyrimidine compound” (TAIHO PHARMACEUTICAL CO., LTD., priority 2017, dated 2023).

Read-outs that look alike come from different tables or passages of the source.

The test system of test [1] is HER2-overexpressing human breast cancer cell line SK-BR-3 cells. Briefly: Cytostatic activity against HER2-expressing cell line (SK-BR-3), CellTiter-Glo. Format: cell-based. Particulars: 3-day culture, read-out: SK-BR-3 cell growth inhibitory activity IC50 value. The protocol:
(§1) Rate of growth inhibition (%)=(C−T)/(C)×100 T: Luminescence intensity of a well supplemented with the test compound C: Luminescence intensity of a well not supplemented with the test compound
(§2) HER2-overexpressing human breast cancer cell line SK-BR-3 cells were suspended in McCoy's 5a medium (manufactured by Life Technologies Corp.) containing 10% fetal bovine serum. The cell suspension was inoculated to each well of a 384-well flat-bottom microplate and cultured at 37° C. for 1 day in an incubator containing 5% carbon dioxide. The synthesis example compound was dissolved in DMSO, and the test compound was diluted into 500 times as high concentration as the final concentration using DMSO. The solution of the test compound in DMSO was diluted with the medium used in the suspension of each cell line, and this solution was added at a final concentration of DMSO of 0.2% to each well of the cell culture plate, followed by further culture at 37° C. for 3 days in an incubator containing 5% carbon dioxide.
(In general: ATP-based viability assays read luminescence as a measure of living cells.)

For test [2], the system named is HER2-overexpressing human stomach cancer cell line NCI-N87 cells. The test is described as follows: Cytostatic activity against HER2-expressing cell line (NCI-N87), CellTiter-Glo. It is filed as cell-based. Conditions: 3-day culture, read-out: NCI-N87 cell growth inhibitory activity IC50 value.
From the text: as §2, with “human stomach” for “human breast”, “line NCI-N87” for “line SK-BR-3”, “in RPMI1640” for “in McCoy's 5a”, “serum. Meanwhile, EGFR-overexpressing highly activated human epithelioid cancer cell line A431 cells were suspended in DMEM, high glucose medium (manufactured by Life Technologies Corp.) containing 10% fetal bovine serum. Subsequently, each” for “serum. The”, “into a concentration of” for “into”, “times” for “times as high concentration as”

Test [3] relates to EGFR-overexpressing highly activated human epithelioid cancer cell line A431 cells. Briefly: Cytostatic activity against EGFR-expressing cell line (A431), CellTiter-Glo. Format: cell-based. Particulars: 3-day culture, read-out: A431 cell growth inhibitory activity IC50 value.
From the text: as §2, with “human stomach” for “human breast”, “line NCI-N87” for “line SK-BR-3”, “in RPMI1640” for “in McCoy's 5a”, “serum. Meanwhile, EGFR-overexpressing highly activated human epithelioid cancer cell line A431 cells were suspended in DMEM, high glucose medium (manufactured by Life Technologies Corp.) containing 10% fetal bovine serum. Subsequently, each” for “serum. The”, “into a concentration of” for “into”, “times” for “times as high concentration as”
as §1

Test [4] addresses purified recombinant human HER2 protein (Homo sapiens (Human), UniProt P04626). Briefly: Measurement of inhibitory effect on HER2-phosphorylating activity (in vitro). It is filed as biochemical. Conditions: ATP 6 μM, 25° C., 40 minutes. From the text: The purified recombinant human HER2 protein used in the test was purchased from Carna Biosciences, Inc.
For the inhibitory activity measurement of each compound, the synthesis example compound was first serially diluted with dimethyl sulfoxide (DMSO).

purified recombinant human HER2 protein, sequence (P04626 23-1255): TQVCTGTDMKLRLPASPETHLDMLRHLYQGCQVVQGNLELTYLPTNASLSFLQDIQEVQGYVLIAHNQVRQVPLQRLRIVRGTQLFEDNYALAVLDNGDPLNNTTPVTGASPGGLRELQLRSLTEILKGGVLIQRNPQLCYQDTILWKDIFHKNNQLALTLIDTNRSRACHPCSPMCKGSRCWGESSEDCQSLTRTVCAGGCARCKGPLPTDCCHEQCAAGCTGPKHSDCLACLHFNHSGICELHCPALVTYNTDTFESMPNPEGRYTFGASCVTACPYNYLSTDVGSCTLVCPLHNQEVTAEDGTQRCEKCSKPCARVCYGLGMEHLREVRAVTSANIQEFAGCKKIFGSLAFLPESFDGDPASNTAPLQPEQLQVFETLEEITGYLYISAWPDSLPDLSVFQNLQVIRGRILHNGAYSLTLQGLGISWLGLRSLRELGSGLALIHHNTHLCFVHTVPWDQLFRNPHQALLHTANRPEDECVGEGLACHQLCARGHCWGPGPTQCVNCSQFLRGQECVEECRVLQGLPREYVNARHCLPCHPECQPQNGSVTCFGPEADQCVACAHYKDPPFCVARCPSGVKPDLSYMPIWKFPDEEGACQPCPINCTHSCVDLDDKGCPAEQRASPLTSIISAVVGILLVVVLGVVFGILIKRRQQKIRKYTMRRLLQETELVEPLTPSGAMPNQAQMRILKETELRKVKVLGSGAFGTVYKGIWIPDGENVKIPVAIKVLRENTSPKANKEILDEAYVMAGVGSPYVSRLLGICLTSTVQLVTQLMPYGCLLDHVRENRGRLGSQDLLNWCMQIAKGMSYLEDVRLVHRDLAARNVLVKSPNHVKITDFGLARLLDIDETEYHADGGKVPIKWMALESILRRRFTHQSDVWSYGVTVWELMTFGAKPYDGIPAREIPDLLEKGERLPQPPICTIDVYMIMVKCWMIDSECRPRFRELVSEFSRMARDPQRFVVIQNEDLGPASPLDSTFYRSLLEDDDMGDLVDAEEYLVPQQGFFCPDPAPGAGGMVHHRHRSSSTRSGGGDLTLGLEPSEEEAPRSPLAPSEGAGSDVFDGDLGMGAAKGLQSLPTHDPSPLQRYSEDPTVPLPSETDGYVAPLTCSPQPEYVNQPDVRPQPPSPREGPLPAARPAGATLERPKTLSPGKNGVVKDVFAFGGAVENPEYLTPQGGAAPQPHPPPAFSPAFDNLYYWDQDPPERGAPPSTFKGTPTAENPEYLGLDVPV

For `C=CC(=O)N1CCC[C@@H](n2nc(C(=O)Nc3cc(Br)c(CC(=O)N(C)C)cc3C)c3c(N)ncnc32)C1` [compound 1], the IC50 (as a rule, the concentration at which inhibition is half-maximal) worked out at 20 nM in test [1], 19 nM in test [2], 2320 nM in test [3] and 10 nM in test [4].

In the case of `C=CC(=O)N1CCC[C@@H](n2nc(C(=O)Nc3cc(C)c(CC(=O)N(C)C)cc3Cl)c3c(N)ncnc32)C1` [compound 2], the IC50 worked out at 30 nM in test [1], 45 nM in test [2], 2670 nM in test [3] and 8.3 nM in test [4].

As for `C=CC(=O)N1CCC[C@@H](n2nc(C(=O)Nc3ccc(CC(=O)N(C)C)c(C)c3Cl)c3c(N)ncnc32)C1` [compound 3], the concentration for half-maximal inhibition (IC50) in test [1] came to 9 nM; in test [2], 27 nM; in test [3], 3370 nM; in test [4], 7.1 nM.

Take `C=CC(=O)N1CCC[C@@H](n2nc(C(=O)Nc3ccc(CC(=O)N(C)C)cc3C)c3c(N)ncnc32)C1` [compound 4]: the IC50 came out at 16 nM in test [1], 12 nM in test [2], 2610 nM in test [3] and 12 nM in test [4].

Turning to `C=CC(=O)N1CCC[C@@H](n2nc(C(=O)Nc3ccc(CC(=O)N(C)C)c4ccccc34)c3c(N)ncnc32)C1` [compound 5], the IC50 amounted to 11 nM in test [1], 6 nM in test [2] and 1230 nM in test [3].

With `C=CC(=O)N1CCC[C@@H](n2nc(C(=O)Nc3ccc(CC(=O)N(C)C)cc3Cl)c3c(N)ncnc32)C1` [compound 6], the IC50 was determined as 14 nM in test [1], 7 nM in test [2], 1290 nM in test [3] and 4 nM in test [4].

On to `C=CC(=O)N1CCC[C@@H](n2nc(C(=O)Nc3ccc(CC(=O)N(C)C)cc3OC)c3c(N)ncnc32)C1` [compound 7], for which the IC50 in test [1] turned out to be 31 nM; in test [2] it was 12 nM; in test [3], 2800 nM; in test [4], 7.1 nM.

Regarding `C=CC(=O)N1CCC[C@@H](n2nc(C(=O)Nc3cc(F)c(CC(=O)N(C)C)cc3C)c3c(N)ncnc32)C1` [compound 10], the IC50 in test [1] came to 21 nM; in test [2], 6 nM; in test [3] it was 1410 nM; in test [4], 13 nM.

Regarding `C=CC(=O)N1CCC[C@@H](n2nc(C(=O)Nc3ccc(CC(=O)N(C)C)c(Cl)c3OC)c3c(N)ncnc32)C1` [compound 11], the IC50 in test [1] is 12 nM; in test [2] it was 4 nM; in test [3] it was 961 nM; in test [4] it was 7.5 nM.

As to `C=CC(=O)N1CCC[C@@H](n2nc(C(=O)Nc3ccc(CC(=O)N(C)C)c(C)c3C)c3c(N)ncnc32)C1` [compound 13, (R)-1-(1-acryloylpiperidin-3-yl)-4-amino-N-(4-(2-(dimethylamino)-2-oxoethyl)-2,3-dimethylphenyl)-1H-pyrazolo[3,4-d]pyrimidine-3-carboxamide], the IC50 came to 9 nM in test [1] (Homo sapiens, SK-BR-3, 72 h); 5 nM in test [2] (Homo sapiens, NCI-N87, 72 h); 1210 nM in test [3] (Homo sapiens, A-431, 72 h).

For `C=CC(=O)N1CCC[C@@H](n2nc(C(=O)Nc3ccc(CC(=O)N(C)C)c(F)c3OC)c3c(N)ncnc32)C1` [compound 14], the IC50 in test [1] was 10 nM; in test [2], 4 nM; in test [3], 486 nM; in test [4], 4.6 nM.

For `C=CC(=O)N1CCC[C@@H](n2nc(C(=O)Nc3ccc(CC(=O)N(C)C)cc3OC(F)F)c3c(N)ncnc32)C1` [compound 15], the IC50 was determined as 30 nM in test [1], 20 nM in test [2], 2270 nM in test [3] and 8.6 nM in test [4].

Consider `C=CC(=O)N1CCC[C@@H](n2nc(C(=O)Nc3ccc(CC(=O)N(C)C)cc3OCF)c3c(N)ncnc32)C1` [compound 16], for which the IC50 in test [1] was 40 nM; in test [2] it was 27 nM; in test [3], 3460 nM; in test [4], 10 nM.

Take `C=CC(=O)N1CCC[C@@H](n2nc(C(=O)Nc3ccc(CC(=O)N(C)C)cc3Br)c3c(N)ncnc32)C1` [compound 17]: the IC50 is 13 nM in test [1], 5 nM in test [2], 910 nM in test [3] and 5.9 nM in test [4].

In the case of `C=CC(=O)N1CCC[C@@H](n2nc(C(=O)Nc3cc(Cl)c(CC(=O)N(C)C)cc3C)c3c(N)ncnc32)C1` [compound 19], the IC50 stood at 24 nM in test [1], 12 nM in test [2], 1260 nM in test [3] and 10 nM in test [4].

For `C=CC(=O)N1CCC[C@@H](n2nc(C(=O)Nc3ccc(OC(=O)N(C)C)cc3C)c3c(N)ncnc32)C1` [compound 26], the IC50 stood at 8 nM in test [1], 5 nM in test [2], 984 nM in test [3] and 7 nM in test [4].

Consider `C=CC(=O)N1CCC[C@@H](n2nc(C(=O)Nc3ccc(OC(=O)N(C)C)cc3Cl)c3c(N)ncnc32)C1` [compound 27], for which the IC50 in test [1] is 9 nM; in test [2], 5 nM; in test [3], 1510 nM.

Regarding `C=CC(=O)N1CCC[C@@H](n2nc(C(=O)Nc3ccc(OC(=O)N(C)C)c(Cl)c3)c3c(N)ncnc32)C1` [compound 29], the IC50 in test [1] stood at 44 nM; in test [2], 46 nM; in test [3] it was 2220 nM; in test [4], 6.5 nM.

As for `C=CC(=O)N1CCC[C@@H](n2nc(C(=O)Nc3ccc(OC(=O)N(C)C)c(C)c3)c3c(N)ncnc32)C1` [compound 30], the IC50 in test [1] was 39 nM; in test [2], 23 nM; in test [3], 2350 nM.

Consider `C=CC(=O)N1CCC[C@@H](n2nc(C(=O)Nc3ccc(OC(=O)N(C)C)c(C)c3C)c3c(N)ncnc32)C1` [compound 32], for which the results for the IC50 in test [1], in test [2] and in test [3] were 14 nM, 7 nM and 1920 nM, respectively.

With `C=CC(=O)N1CCC[C@@H](n2nc(C(=O)Nc3ccc(OC(=O)N(C)C)cc3OC)c3c(N)ncnc32)C1` [compound 36], the IC50 in test [1] worked out at 12 nM.

Take `C=CC(=O)N1CCC[C@@H](n2nc(C(=O)Nc3cc(C)c(OC(=O)N(C)C)cc3C)c3c(N)ncnc32)C1` [compound 38]: the IC50 came out at 12 nM in test [1], 8 nM in test [2] and 1040 nM in test [3].

As for `C=CC(=O)N1CCC[C@@H](n2nc(C(=O)Nc3ccc(CC(=O)N(C)C)c4c3OCO4)c3c(N)ncnc32)C1` [compound 53], the results for the IC50 in test [1] and in test [4] were 18 nM and 14 nM, respectively.

With `C=CC(=O)N1CC(F)C[C@@H](n2nc(C(=O)Nc3ccc(CC(=O)N(C)C)cc3Cl)c3c(N)ncnc32)C1` (stereo partly drawn) [compound 76, 1-((3R)-1-acryloyl-5-fluoropiperidin-3-yl)-4-amino-N-(2-chloro-4-(2-(dimethylamino)-2-oxoethyl)phenyl)-1H-pyrazolo[3,4-d]pyrimidine-3-carboxamide], the IC50 was found to be 8 nM in test [1] (Homo sapiens, SK-BR-3, 72 h) and 2070 nM in test [3] (Homo sapiens, A-431, 72 h).

Turning to `C=CC(=O)N1CC(F)C[C@@H](n2nc(C(=O)Nc3ccc(CC(=O)N(C)C)c(C)c3C)c3c(N)ncnc32)C1` (stereo partly drawn) [compound 77, 1-((3R)-1-acryloyl-5-fluoropiperidin-3-yl)-4-amino-N-(4-(2-(dimethylamino)-2-oxoethyl)-2,3-dimethylphenyl)-1H-pyrazolo[3,4-d]pyrimidine-3-carboxamide], the IC50 turned out to be 12 nM in test [1] (Homo sapiens, SK-BR-3, 72 h) and 2460 nM in test [3] (Homo sapiens, A-431, 72 h).
